Data: patent publication US20230414826A1, “FIBRIN HYDROGELS” (Mayo Foundation for Medical Education and Research, priority 2020, published 2023)

Biological target: T1, fibrin gels (Homo sapiens, UniProt P02671+P02675+P02679)
T1 sequence (P02671 20-644 isoform P02671-2 limits assumed): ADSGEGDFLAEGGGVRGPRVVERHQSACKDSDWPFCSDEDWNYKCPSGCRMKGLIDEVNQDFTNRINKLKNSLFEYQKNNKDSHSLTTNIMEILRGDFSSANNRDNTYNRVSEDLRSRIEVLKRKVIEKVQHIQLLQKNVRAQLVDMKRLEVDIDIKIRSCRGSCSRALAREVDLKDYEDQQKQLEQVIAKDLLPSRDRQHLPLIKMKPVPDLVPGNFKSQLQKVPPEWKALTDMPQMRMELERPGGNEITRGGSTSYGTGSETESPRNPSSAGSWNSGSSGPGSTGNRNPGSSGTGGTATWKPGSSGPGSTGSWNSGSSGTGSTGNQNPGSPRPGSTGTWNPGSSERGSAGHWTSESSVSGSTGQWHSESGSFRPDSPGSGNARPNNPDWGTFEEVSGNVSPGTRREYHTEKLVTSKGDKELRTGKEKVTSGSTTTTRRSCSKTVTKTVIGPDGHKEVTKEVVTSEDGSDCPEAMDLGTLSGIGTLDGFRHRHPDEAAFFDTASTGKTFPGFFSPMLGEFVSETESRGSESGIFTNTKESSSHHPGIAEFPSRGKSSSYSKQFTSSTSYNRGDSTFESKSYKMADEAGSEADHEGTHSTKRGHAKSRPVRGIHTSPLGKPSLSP
T1 sequence (P02675 45-491 limits assumed): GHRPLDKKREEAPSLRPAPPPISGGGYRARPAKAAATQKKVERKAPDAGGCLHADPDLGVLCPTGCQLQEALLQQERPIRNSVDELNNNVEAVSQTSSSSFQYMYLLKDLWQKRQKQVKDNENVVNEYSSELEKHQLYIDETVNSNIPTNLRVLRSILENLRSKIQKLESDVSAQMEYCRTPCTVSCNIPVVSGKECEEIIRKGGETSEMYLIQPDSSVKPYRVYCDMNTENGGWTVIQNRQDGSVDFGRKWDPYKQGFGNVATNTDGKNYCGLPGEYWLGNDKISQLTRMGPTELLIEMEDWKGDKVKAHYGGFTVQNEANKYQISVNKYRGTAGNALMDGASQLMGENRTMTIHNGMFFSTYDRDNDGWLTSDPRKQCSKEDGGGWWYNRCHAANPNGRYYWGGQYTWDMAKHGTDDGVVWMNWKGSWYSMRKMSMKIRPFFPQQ
T1 sequence (P02679 27-437 isoform P02679-2 limits assumed): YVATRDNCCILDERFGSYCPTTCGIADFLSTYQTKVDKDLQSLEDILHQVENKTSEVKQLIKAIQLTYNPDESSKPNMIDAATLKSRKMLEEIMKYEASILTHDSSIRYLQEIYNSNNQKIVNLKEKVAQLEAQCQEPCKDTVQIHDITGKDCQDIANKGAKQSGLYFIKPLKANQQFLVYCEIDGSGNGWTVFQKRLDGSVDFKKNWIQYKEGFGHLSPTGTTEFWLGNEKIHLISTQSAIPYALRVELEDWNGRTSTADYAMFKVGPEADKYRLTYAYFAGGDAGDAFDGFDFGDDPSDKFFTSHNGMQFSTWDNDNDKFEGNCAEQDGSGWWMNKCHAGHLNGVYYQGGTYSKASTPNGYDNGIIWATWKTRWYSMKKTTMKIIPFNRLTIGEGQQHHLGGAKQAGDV
Assay: Fibrin gel degradation with plasminogen and tissue plasminogen activator, thickness by OCT
Settings: 1.6 U/mL plasminogen and 17,000 U/mL tPA in PBS, 37° C., gels with 0.12% dye, n=3
Description: Fibrin gels were cast as described in the Electron Microscopy section above and hydrated in PBS. A punch was used to generate 5.0 mm×1.5 mm gels. The measured thickness of all the gels was 309±69 μm.
The fibrin gels were then submerged in a PBS solution with 1.6 U/mL plasminogen (Sigma-Aldrich; St Louis, MO) and 17,000 U/mL tissue plasminogen activator (Sigma-Aldrich) in a glass-bottom petri dish (Mattek) and incubated at 37° C. to initiate degradation as described elsewhere (see, e.g., Gandhi et al., 2018 Acta Biomater., 67:134-46). Fibrin gel thickness was monitored over time by imaging with an Envisu R2110 (Leica; Wetzlar, Germany) optical coherence tomograph (OCT) and quantified using the caliper tool within the accompanying InVivoVue software (Leica). Gel thickness was continually measured every 10 minutes until no physical evidence of the insoluble gel remained. The thickness of a gel was measured at 3 different locations (left, middle, right) on each cross-section. The measure at each location was normalized to its initial value and then averaged.
Fibrin gels produced using PBS, TB, or EB with a geometry of 1.5 mm wide×5.0 mm long×0.2 mm thick were generated. Gels were hydrated in PBS prior to incubation in a solution of tissue plasminogen activator (tPA) and plasminogen (P) at 37° C. […]

Structure (SMILES)	degradation time [min]
Cc1cc(-c2ccc(/N=N/c3ccc4c(S(=O)(=O)O)cc(S(=O)(=O)O)c(N)c4c3O)c(C)c2)ccc1/N=N/c1ccc2c(S(=O)(=O)O)cc(S(=O)(=O)O)c(N)c2c1O [EB, Evans Blue]	78 ± 37
Cc1cc(-c2ccc(/N=N/c3c(S(=O)(=O)O)cc4cc(S(=O)(=O)O)cc(N)c4c3O)c(C)c2)ccc1/N=N/c1c(S(=O)(=O)O)cc2cc(S(=O)(=O)O)cc(N)c2c1O [TB, Trypan Blue]	33 ± 18
